Assay results: US20260146232A1, “METHODS FOR PROMOTING HOMING AND ENGRAFTMENT OF HEMATOPOIETIC STEM CELLS” (The Trustees of Indiana University, priority 2022, published 2026)

Experiments:
human CB CD34+ cells [1] = assay: Chemotaxis (transwell migration) assay toward SDF-1, CB CD34+ cells; type: cell-based; details: for chemotaxis of human CB CD34+ cells toward SDF-1: 20 h
Description: (§1) Chemotaxis assay. Chemotaxis assays were performed in Costar 24-well trans-well plates with 6.5 mm diameter inserts with 5.0 μm pores (Corning, NY, USA). Briefly, 650 μL of IMDM medium (37° C.) that contained 0.5% bovine serum albumin (Sigma-Aldrich) and SDF-1 (0, 50 ng/mL) was added to the bottom well. Cells were suspended at 1×10^5 cells/100 μL in IMDM medium and loaded to the upper chamber of the trans-well. Trans-well plates were placed in a 37° C. incubator with 95% humidity and 5% CO2 for 4 hours. Percent migration was measured using flow cytometry with number of cells in the bottom chamber divided by number of cells placed in the upper chamber. To calculate the percent migration of CB HSCs, phenotypic HSCs was determined by surface staining and flow cytometry analysis. Human CB HSC chemotaxis was calculated as number of HSCs in the bottom chamber divided by number of HSCs loaded in the upper chamber. For AMD3100 administration, cells were treated with 5 μg/mL AMD3100 (239820, Sigma-Aldrich) for 30 min right before the chemotaxis assay.

CXCR4 = assay: Surface CXCR4 protein level (MFI) by flow cytometry; type: cell-based, human; details: for effect of FTO inhibitor on AGII-induced CXCR4 upregulation: AGII-treated cells plus FTO inhibitor; for CXCR4 expression (MFI of cell surface CXCR4 protein level): human CB CD34+ cells treated 20 h, screen 10 μM unless otherwise stated; for effect of inhibition of mir-145 (sh-mir-145) on compound-induced CXCR4 expression: human CB CD34+ cells treated with compound and sh-mir-145
From the text: (§2) Human CD34^+ CB cell collection and culture. Umbilical CB units were supplied by Cleveland Cord Blood Bank and CordUse, Orlando, FL, USA. All studies were approved by the institutional review board of the IUSM. Mononuclear cells were isolated by density gradient centrifugation and CD34^+ cells were isolated by immunomagnetic selection kit (Miltenyi Biotec, 130-046-702). […] For molecular compound treatment, all reagents were ordered from Cayman Chemical (Ann Arbor, MI, USA). Briefly, molecular compounds were added in the initiation of human CB CD34^+ cells culture, the time and concentration of each molecular compound for cell treatment was shown in figure legends.
Flow cytometry. Fresh or cultured CB cells were sorted for different phenotypes by using the following antibodies. Antibodies were used to detect CD34 (BV786, BD Biosciences, 744741), CD34 (FITC, BD Biosciences, 340668), CD45RA (Taxe-red, BD Biosciences, 562298), CD90 (BV421, BD Biosciences, 562556), CD49f (cy5.5, BD Biosciences, 562495), CD38 (PE, BD Biosciences, 560981). CD3 (BV421, BD Biosciences, 562427), CD33 (PE, BD Biosciences, 555450), CD19 (PE, BD Biosciences, 555413), CXCR4 (APC, BD Biosciences, 555976) and CD45 (APC, BD Biosciences, 555485). Gating strategy of phenotypic HSCs were shown in supplementary FIG. 2B.

YTHDF2 = assay: Relative YTHDF2 expression level in human CB CD34+ cells; type: cell-based; details: human CB CD34+ cells treated 20 hours
From the text: as §2
RNA extraction and real-time PCR. After cells were harvested by FACS, RNA was extracted by a RNeasy Mini Kit following manufacturer's protocol (Qiagen, 74106). Total RNA was reverse-transcribed by use of Superscript III kit (ThermoFisher, 18080093). Quantitative real-time PCR reactions were performed by SYBR Green PCR Master Mix (Thermo Fisher, Florence, KY, USA) and an Agilent Mx3000P QPCR System. Expression of housekeeping gene GAPDH was used as an internal control. Data are shown as relative mRNA level normalized to levels in vehicle control, set to 1.

mir-145 = assay: Relative mir-145 expression level in human CB CD34+ cells; type: cell-based; details: human CB CD34+ cells treated 20 hours
From the text: Human CD34^+ CB cell collection and culture. Umbilical CB units were supplied by Cleveland Cord Blood Bank and CordUse, Orlando, FL, USA. All studies were approved by the institutional review board of the IUSM. Mononuclear cells were isolated by density gradient centrifugation and CD34^+ cells were isolated by immunomagnetic selection kit (Miltenyi Biotec, 130-046-702). […] For molecular compound treatment, all reagents were ordered from Cayman Chemical (Ann Arbor, MI, USA). Briefly, molecular compounds were added in the initiation of human CB CD34^+ cells culture, the time and concentration of each molecular compound for cell treatment was shown in figure legends. RNA extraction and real-time PCR. After cells were harvested by FACS, RNA was extracted by a RNeasy Mini Kit following manufacturer's protocol (Qiagen, 74106). Total RNA was reverse-transcribed by use of Superscript III kit (ThermoFisher, 18080093). Quantitative real-time PCR reactions were performed by SYBR Green PCR Master Mix (Thermo Fisher, Florence, KY, USA) and an Agilent Mx3000P QPCR System. Expression of housekeeping gene GAPDH was used as an internal control. Data are shown as relative mRNA level normalized to levels in vehicle control, set to 1.

[2] = system: phenotypic HSC (CD34+ CD38- CD45RA- CD90+ CD49f+); assay: Chemotaxis (transwell migration) assay toward SDF-1, phenotypic HSCs; type: cell-based, human; details: 20 h
Description: as §1

CB CD34+ cells = assay: Colony-forming unit (CFU) assay; type: cell-based, human; details: 20 h
human CB CD34+ cells [3] = assay: Long-term engraftment / limiting dilution analysis (LDA) in NSG mice; type: in vivo; details: for engraftment in NSG mice vs vehicle control (human CD45+ cells in BM): 20 h, 4 months after transplantation; for human myeloid and B-cell chimerism in BM: 10,000 CB CD34+ cells; for engraftment in secondary recipients vs vehicle: secondary NSG mice at 4 months; for SRC frequency (Poisson distribution analysis): vehicle 1/4761
Description: Limiting dilution analysis (LDA). Frequency of human SCID repopulating cells (SRCs) was determined by LDA as reported before. Increasing doses of GFP overexpressing CD34^+ cells (2500, 5000 or 10000 cells) were intravenously injected into sublethally irradiated NSG recipient mice (350 cGy; 137Cs source, single dose). Four months after transplantation, the percentage of GFP^+ human CD45^+ cell chimerism was analyzed by immunostaining and flow cytometry. For long-term engraftment assays that assess the self-renewal capacity of HSC, 3×10^6 BM cells from primary recipients of the 10000-cell group were intravenously transplanted into secondary sub-lethally irradiated NSG recipient mice.

human CB CD34+ cells [4] = assay: Homing assay of treated human CB CD34+ cells in NSG mice; type: in vivo; details: Raloxifene 40 μM, 20 h; 500,000 cells; 24 h after transplantation
Description: Homing assay. Homing of human CB CD34^+ cells was evaluated in NSG mice. Molecular compounds treated or siRNA transfected human CB CD34+ cells (500,000 for each mouse) were intravenously injected into sub-lethally irradiated (350 cGy) NSG mice. After 24 h, these recipient mice were sacrificed, BM cells from each mouse were collected. Cells were stained with anti-human CD45 antibody, then resuspended in 1% formaldehyde buffer. Flow cytometry analysis was performed to determine the percentage of human CD45^+ cells. BM cells from non-transplanted NSG mice served as negative controls.

c1cc(CN2CCCNCCNCCCNCC2)ccc1CN1CCCNCCNCCCNCC1 [AMD3100]
blocking of Raloxifene- and Imatinib-enhanced chemotaxis toward SDF-1 (human CB CD34+ cells [1]; 5 μg/mL AMD3100 for 30 min before the chemotaxis assay): fully blocked
blocking of AGII-enhanced migration toward SDF-1 (human CB CD34+ cells [1]; AMD3100 5 μg/mL for 30 min before assay, AGII-treated cells): blocked
blocking of chemotaxis of human CB CD34+ cells to SDF-1 (human CB CD34+ cells [1]; AMD3100, Control or si-YTHDF2 transfected cells): blocked

Cc1noc(C)c1-c1cc(Cl)c(Nc2ccccc2C(=O)NO)c(Cl)c1 [FB23-2]
effect of FTO inhibitor on AGII-induced CXCR4 upregulation (CXCR4): repressed

CC#CCC(C)[C@H](O)/C=C/[C@@H]1[C@H]2C/C(=C/CCCC(=O)O)C[C@H]2C[C@H]1O (some centres unmarked) [Iloprost]
YTHDF2 expression (YTHDF2): downregulated
mir-145 expression (mir-145): strongly upregulated
CXCR4 expression (MFI of cell surface CXCR4 protein level) (CXCR4): strongly upregulated
effect of inhibition of mir-145 (sh-mir-145) on compound-induced CXCR4 expression (CXCR4): did not affect

Cc1ccc(NC(=O)c2ccc(CN3CCN(C)CC3)cc2)cc1Nc1nccc(-c2cccnc2)n1 [Imatinib]
migration to SDF-1 in phenotypic HSC population ([2]; Imatinib 10 μM): Enhanced migration
chemotaxis of human CB CD34+ cells toward SDF-1 (human CB CD34+ cells [1]; Imatinib 10 μM): significantly enhanced
colony output vs control group (CB CD34+ cells; Imatinib 10 μM): no significant difference
engraftment in NSG mice vs vehicle control (human CD45+ cells in BM) (human CB CD34+ cells [3]; Imatinib 10 μM): significantly elevated
human myeloid and B-cell chimerism in BM (human CB CD34+ cells [3]; Imatinib-treated cells): increased
engraftment in secondary recipients vs vehicle (human CB CD34+ cells [3]; Imatinib-treated cells): Enhanced engraftment
SRC frequency (Poisson distribution analysis) (human CB CD34+ cells [3]; Imatinib-treated cells): 1/1406

Cc1ccc(Cl)c(Nc2ccccc2C(=O)O)c1Cl [Meclofenamic Acid]
effect of FTO inhibitor on AGII-induced CXCR4 upregulation (CXCR4): repressed

C[C@@H]1C[C@H]2[C@@H]3CCC4=CC(=O)C=C[C@]4(C)[C@@]3(Cl)[C@@H](O)C[C@]2(C)[C@@]1(O)C(=O)CCl [Mometasone]
YTHDF2 expression (YTHDF2): downregulated
mir-145 expression (mir-145): strongly upregulated
CXCR4 expression (MFI of cell surface CXCR4 protein level) (CXCR4): strongly upregulated
effect of inhibition of mir-145 (sh-mir-145) on compound-induced CXCR4 expression (CXCR4): did not affect

O=C(c1ccc(OCCN2CCCCC2)cc1)c1c(-c2ccc(O)cc2)sc2cc(O)ccc12 [Raloxifene]
migration to SDF-1 in phenotypic HSC population ([2]; Raloxifene 40 μM): Enhanced migration
chemotaxis of human CB CD34+ cells toward SDF-1 (human CB CD34+ cells [1]; Raloxifene 40 μM): significantly enhanced
YTHDF2 expression (YTHDF2): downregulated
mir-145 expression (mir-145): strongly upregulated
colony output vs control group (CB CD34+ cells; Raloxifene 40 μM): no significant difference
engraftment in NSG mice vs vehicle control (human CD45+ cells in BM) (human CB CD34+ cells [3]; Raloxifene 40 μM): significantly elevated
human myeloid and B-cell chimerism in BM (human CB CD34+ cells [3]; Raloxifene-treated cells): increased
engraftment in secondary recipients vs vehicle (human CB CD34+ cells [3]; Raloxifene-treated cells): Enhanced engraftment
SRC frequency (Poisson distribution analysis) (human CB CD34+ cells [3]; Raloxifene-treated cells): 1/1818
CXCR4 expression (MFI of cell surface CXCR4 protein level) (CXCR4): strongly upregulated
effect of inhibition of mir-145 (sh-mir-145) on compound-induced CXCR4 expression (CXCR4): significantly blocked
homing efficiency (human CD45+ cells in BM) (human CB CD34+ cells [4]): dramatically increased
